Test results taken from US20210253626A1, “PRODRUGS OF FULVESTRANT” (KASHIV BIOSCIENCES, LLC, priority 2018, published 2021).
Converted amounts (≈) assume the structure as drawn. Where a name gives a salt, the structure may show the parent alone. Read-outs that look alike come from different tables or passages of the source.

Experiments:
[1] = physchem; details: 25 °C, pH 7.4, aqueous buffer, kinetic from dmso stock
Protocol: Solubility Test Procedure I:
(§1) A 50 mmol stock solution for each test compound was prepared using dimethyl sulfoxide. From this stock solution, a working solution of 1 mmol was prepared by diluting with dimethyl sulfoxide. The working solution of 1 mmol was then serially diluted using dimethyl sulfoxide. Then, 5-20 μl of stock solution is added to 1 ml of phosphate buffer solution of pH 7.4. The solution was then stirred for 4 h at 25° C. in order to reach equilibrium. After this incubation period, the solution was filtered using 0.45 micron PVDF injector filters to remove the insoluble fraction of the compound and subsequently filtrate is taken for quantification using UV Detector. The concentration of test sample was calculated using the linearity/calibration curve.

[2] = 4 h, pH 7.4
Protocol: Solubility Test Procedure I:
as §1

[3] = Kinetic solubility (Solubility Test Procedure I); details: for Increase in solubility compare to fulvestrant (Fold): kinetic aqueous solubility at pH 7.4; for solubility at 4 h: phosphate buffer, 25 °C, pH 7.4, aqueous buffer, kinetic from dmso stock
Protocol: Solubility Test Procedure I:
as §1

[4] = physchem; details: thermodynamic from solid
Protocol: Solubility Test Procedure II:
(§2) Stock solutions of the test compounds and fulvestrant were prepared in phosphate buffered saline (PBS) pH 7.4 and sodium acetate buffer pH 4.0, which was incubated for 24 h at room temperature with constant mixing at 100 rpm in the same tube. After incubation, the tubes were centrifuged for 20 min. at 10000 rpm. Later 200 μL of sample was taken and filtered. The filtrate was analysed by HPLC-UV against 0.0012 mg/ml, 0.037 mg/mL, 0.3 mg/ml, 0.1 mg/ml and 1 mg/ml of dimethylsulfoxide (DMSO) stock.
(§3) Solubility (μg/ml)=[Peak area of sample/Peak area of standard]×Concentration of standard % Aqueous solubility: [Test solubility (μg/ml)/incubation concentration (μg/ml)]×100

[5] = Thermodynamic solubility (Solubility Test Procedure II); details: for solubility thermodynamic at 24 h: thermodynamic from solid
Protocol: Solubility Test Procedure II:
as §2, §3

[6] = pH 4, aqueous buffer, Thermodynamic solubility (mg/mL) pH 4.0, sodium acetate buffer pH 4.0, 24 h room temperature, test compound concentration 1 mg/mL

CN(C)CC(=O)Oc1ccc2c(c1)C[C@@H](CCCCCCCCC[S+]([O-])CCCC(F)(F)C(F)(F)F)[C@@H]1[C@@H]2CC[C@]2(C)[C@@H](O)CC[C@@H]12 (stereo partly drawn) [Example 1, (7R,8R,9S,13S,14S,17S)-17-hydroxy-13-methyl-7-(9-((4,4,5,5,5-pentafluoropentyl)sulfinyl)nonyl)-7,8,9,11,12,13,14,15,16,17-decahydro-6H-cyclopenta[a]phenanthren-3-yl dimethylglycinate]
solubility at 4 h [1]: 0.04 µM (≈ 0.0277 µg/mL)
Increase in solubility compare to fulvestrant (Fold) [2]: 8 Fold

C[C@]12CC[C@@H]3c4ccc(OC(=O)CN5CCCCC5)cc4C[C@@H](CCCCCCCCC[S+]([O-])CCCC(F)(F)C(F)(F)F)[C@H]3[C@@H]1CC[C@@H]2O (stereo partly drawn) [Example 3, (7R,8R,9S,13S,14S,17S)-17-hydroxy-13-methyl-7-(9-((4,4,5,5,5-pentafluoropentyl)sulfinyl)nonyl)-7,8,9,11,12,13,14,15,16,17-decahydro-6H-cyclopenta[a]phenanthren-3-yl 2-(piperidin-1-yl)acetate hydrochloride]
Increase in solubility compare to fulvestrant (Fold) [3]: 669 Fold
solubility at 4 h [3]: 3.3 µM

CN1CCN(C(=O)Oc2ccc3c(c2)C[C@@H](CCCCCCCCC[S+]([O-])CCCC(F)(F)C(F)(F)F)[C@@H]2[C@@H]3CC[C@]3(C)[C@@H](O)CC[C@@H]23)CC1 (stereo partly drawn) [Example 4, (7R,8R,9S,13S,14S,17S)-17-hydroxy-13-methyl-7-(9-((4,4,5,5,5-pentafluoropentyl)sulfinyl)nonyl)-7,8,9,11,12,13,14,15,16,17-decahydro-6H-cyclopenta[a]phenanthren-3-yl 4-methylpiperazine-1-carboxylate]
Increase in solubility compare to fulvestrant (Fold) [3]: 97 Fold
solubility at 4 h [3]: 0.5 µM (≈ 0.366 µg/mL)
solubility thermodynamic at 24 h [4, 6]: 790 µg/mL (≈ 1080 µM)

C[C@]12CC[C@@H]3c4ccc(OC(=O)CCC(=O)O)cc4C[C@@H](CCCCCCCCC[S+]([O-])CCCC(F)(F)C(F)(F)F)[C@H]3[C@@H]1CC[C@@H]2O (stereo partly drawn) [Example 5, 4-(((7R,8R,9S,13S,14S,17S)-17-hydroxy-13-methyl-7-(9-((4,4,5,5,5-pentafluoropentyl)sulfinyl)nonyl)-7,8,9,11,12,13,14,15,16,17-decahydro-6H-cyclopenta[a]phenanthren-3-yl)oxy)-4-oxobutanoic acid]
solubility at 4 h [1]: 1.4 µM (≈ 0.99 µg/mL)
Increase in solubility compare to fulvestrant (Fold) [2]: 295 Fold

C[C@]12CC[C@@H]3c4ccc(OC(=O)c5ccccc5O)cc4C[C@@H](CCCCCCCCC[S+]([O-])CCCC(F)(F)C(F)(F)F)[C@H]3[C@@H]1CC[C@@H]2O (stereo partly drawn) [Example 6, (7R,8R,9S,13S,14S,17S)-17-hydroxy-13-methyl-7-(9-((4,4,5,5,5-pentafluoropentyl)sulfinyl)nonyl)-7,8,9,11,12,13,14,15,16,17-decahydro-6H-cyclopenta[a]phenanthren-3-yl 2-hydroxybenzoate]
Increase in solubility compare to fulvestrant (Fold) [3]: 562 Fold
solubility at 4 h [3]: 2.7 µM (≈ 1.96 µg/mL)

CCOP(=O)(OCC)Oc1ccc2c(c1)C[C@@H](CCCCCCCCC[S+]([O-])CCCC(F)(F)C(F)(F)F)[C@@H]1[C@@H]2CC[C@]2(C)[C@@H](O)CC[C@@H]12 (stereo partly drawn) [Example 7, diethyl ((7R,8R,9S,13S,14S,17S)-17-hydroxy-13-methyl-7-(9-((4,4,5,5,5-pentafluoropentyl)sulfinyl)nonyl)-7,8,9,11,12,13,14,15,16,17-decahydro-6H-cyclopenta[a]phenanthren-3-yl) phosphate]
Increase in solubility compare to fulvestrant (Fold) [3]: 35 Fold
solubility at 4 h [3]: 0.2 µM

C[C@]12CC[C@@H]3c4ccc(OC(=O)CN5CCCC5)cc4C[C@@H](CCCCCCCCC[S+]([O-])CCCC(F)(F)C(F)(F)F)[C@H]3[C@@H]1CC[C@@H]2O (stereo partly drawn) [Example 8, (7R,8R,9S,13S,14S,17S)-17-hydroxy-13-methyl-7-(9-((4,4,5,5,5-pentafluoropentyl)sulfinyl)nonyl)-7,8,9,11,12,13,14,15,16,17-decahydro-6H-cyclopenta[a]phenanthren-3-yl 2-(pyrrolidin-1-yl)acetate]
solubility at 4 h [1]: 17.1 µM (≈ 12.3 µg/mL)
Increase in solubility compare to fulvestrant (Fold) [2]: 3500 Fold

C[C@]12CC[C@@H]3c4ccc(OC(=O)N5CCC(N6CCCCC6)CC5)cc4C[C@@H](CCCCCCCCC[S+]([O-])CCCC(F)(F)C(F)(F)F)[C@H]3[C@@H]1CC[C@@H]2O (stereo partly drawn) [Example 9, (7R,8R,9S,13S,14S,17S)-17-hydroxy-13-methyl-7-(9-((4,4,5,5,5-pentafluoropentyl)sulfinyl)nonyl)-7,8,9,11,12,13,14,15,16,17-decahydro-6H-cyclopenta[a]phenanthren-3-yl[1,4′-bipiperidine]-1′-carboxylate]
Increase in solubility compare to fulvestrant (Fold) [3]: 22 Fold
solubility at 4 h [3]: 0.1 µM (≈ 0.0801 µg/mL)
solubility thermodynamic at 24 h [4, 6]: 700 µg/mL (≈ 874 µM)

C[C@]12CC[C@@H]3c4ccc(OC(=O)CN5CCOCC5)cc4C[C@@H](CCCCCCCCC[S+]([O-])CCCC(F)(F)C(F)(F)F)[C@H]3[C@@H]1CC[C@@H]2O (stereo partly drawn) [Example 10, (7R,8R,9S,13S,14S,17S)-17-hydroxy-13-methyl-7-(9-((4,4,5,5,5-pentafluoropentyl)sulfinyl)nonyl)-7,8,9,11,12,13,14,15,16,17-decahydro-6H-cyclopenta[a]phenanthren-3-yl 2-morpholinoacetate]
solubility at 4 h [1]: 0.2 µM (≈ 0.147 µg/mL)
Increase in solubility compare to fulvestrant (Fold) [2]: 32 Fold

CN1CCC(CC(=O)Oc2ccc3c(c2)C[C@@H](CCCCCCCCC[S+]([O-])CCCC(F)(F)C(F)(F)F)[C@@H]2[C@@H]3CC[C@]3(C)[C@@H](O)CC[C@@H]23)CC1 (stereo partly drawn) [Example 15, (7R,8R,9S,13S,14S,17S)-17-hydroxy-13-methyl-7-(9-((4,4,5,5,5-pentafluoropentyl)sulfinyl)nonyl)-7,8,9,11,12,13,14,15,16,17-decahydro-6H-cyclopenta[a]phenanthren-3-yl 2-(1-methylpiperidin-4-yl)acetate]
solubility thermodynamic at 24 h ([4]; pH 4, aqueous buffer): 630 µg/mL (≈ 845 µM)

CN1CCCN(C(=O)Oc2ccc3c(c2)C[C@@H](CCCCCCCCC[S+]([O-])CCCC(F)(F)C(F)(F)F)[C@@H]2[C@@H]3CC[C@]3(C)[C@@H](O)CC[C@@H]23)CC1 (stereo partly drawn) [Example 19, (7R,8R,9S,13S,14S,17S)-17-hydroxy-13-methyl-7-(9-((4,4,5,5,5-pentafluoropentyl)sulfinyl)nonyl)-7,8,9,11,12,13,14,15,16,17-decahydro-6H-cyclopenta[a]phenanthren-3-yl 4-methyl-1,4-diazepane-1-carboxylate]
solubility thermodynamic at 24 h ([4]; pH 4, aqueous buffer, Thermodynamic solubility (mg/mL) pH 4.0, sodium acetate buffer pH 4.0, 24 h room temperature, test compound concentration 2 mg/mL): 1050 µg/mL (≈ 1410 µM)

C[C@]12CC[C@@H]3c4ccc(OP(=O)(O)O)cc4C[C@@H](CCCCCCCCC[S+]([O-])CCCC(F)(F)C(F)(F)F)[C@H]3[C@@H]1CC[C@@H]2O (stereo partly drawn) [Example 20, (7R,8R,9S,13S,14S,17S)-17-hydroxy-13-methyl-7-(9-((4,4,5,5,5-pentafluoropentyl)sulfinyl)nonyl)-7,8,9,11,12,13,14,15,16,17-decahydro-6H-cyclopenta[a]phenanthren-3-yl dihydrogen phosphate]
solubility thermodynamic ([4]; pH 4, aqueous buffer): 740 µg/mL
solubility thermodynamic ([4]; pH 7.4, aqueous buffer): 1220 µg/mL

C[C@]12CC[C@@H]3c4ccc(OP(=O)(O)O)cc4C[C@@H](CCCCCCCCC[S+]([O-])CCCC(F)(F)C(F)(F)F)[C@H]3[C@@H]1CC[C@@H]2O (stereo partly drawn) [Example 21, (7R,8R,9S,13S,14S,17S)-17-hydroxy-13-methyl-7-(9-((4,4,5,5,5-pentafluoropentyl)sulfinyl)nonyl)-7,8,9,11,12,13,14,15,16,17-decahydro-6H-cyclopenta[a]phenanthren-3-yl dihydrogen phosphate disodium]
solubility thermodynamic at 24 h ([4]; pH 7.4, aqueous buffer, Thermodynamic solubility (mg/mL) pH 7.4, PBS pH 7.4, 24 h room temperature, test compound concentration 5 mg/mL): > 5000 µg/mL

C[C@]12CC[C@@H]3c4ccc(OC(=O)N5CCC(N6CCCCC6)CC5)cc4C[C@@H](CCCCCCCCC[S+]([O-])CCCC(F)(F)C(F)(F)F)[C@H]3[C@@H]1CC[C@@H]2O (stereo partly drawn) [Example 29, (7R,8R,9S,13S,14S,17S)-17-hydroxy-13-methyl-7-(9-((4,4,5,5,5-pentafluoropentyl)sulfinyl)nonyl)-7,8,9,11,12,13,14,15,16,17-decahydro-6H-cyclopenta[a]phenanthren-3-yl [1,4′-bipiperidine]-1′-carboxylate hydrochloride]
Thermodynamic solubility (mg/mL) pH 4.0 ([5]; sodium acetate buffer pH 4.0, 24 h room temperature, test compound concentration 1 mg/mL, hydrochloride): 0.75 mg/mL

C[C@]12CCC3c4ccc(OCOP(=O)(O)O)cc4C[C@@H](CCCCCCCCC[S+]([O-])CCCC(F)(F)C(F)(F)F)[C@H]3[C@@H]1CC[C@@H]2O (stereo partly drawn) [Example 44, ((7R,8R,13S,14S,17S)-17-hydroxy-13-methyl-7-(9-(4,4,5,5,5-pentafluoropentylsulfinyl)nonyl)-7,8,9,11,12,13,14,15,16,17-decahydro-6H-cyclopenta[a]phenanthren-3-yloxy)methyl dihydrogen phosphate]
solubility thermodynamic at 24 h ([4]; pH 4, aqueous buffer): > 1000 µg/mL
solubility thermodynamic at 24 h ([4]; pH 7.4, aqueous buffer): > 15000 µg/mL

CC(C)[C@H](NC(=O)Oc1ccc2c(c1)C[C@@H](CCCCCCCCC[S+]([O-])CCCC(F)(F)C(F)(F)F)[C@@H]1C2CC[C@]2(C)[C@@H](O)CC[C@@H]12)C(=O)O (stereo partly drawn) [Example 45, (2S)-2-(((7R,8R,13S,14S,17S)-17-hydroxy-13-methyl-7-(9-(4,4,5,5,5-pentafluoropentylsulfinyl)nonyl)-7,8,9,11,12,13,14,15,16,17-decahydro-6H-cyclopenta[a]phenanthren-3-yloxy)carbonylamino)-3-methylbutanoic acid]
solubility thermodynamic ([4]; pH 7.4, aqueous buffer): 1250 µg/mL (≈ 1670 µM)

C[C@]12CC[C@@H]3c4ccc(O)cc4C[C@@H](CCCCCCCCC[S+]([O-])CCCC(F)(F)C(F)(F)F)[C@H]3[C@@H]1CC[C@@H]2O (some centres unmarked) [Fulvestrant]
solubility at 4 h [3]: 0.005 µM (≈ 0.00303 µg/mL)
solubility thermodynamic at 24 h ([5]; phosphate buffered saline (PBS), pH 7.4, aqueous buffer): 1.2 µg/mL (≈ 1.98 µM)
solubility thermodynamic at 24 h ([5]; sodium acetate buffer, pH 4, aqueous buffer): 2.9 µg/mL (≈ 4.78 µM)
